Test results: patent publication US20230293470A1, “APPLICATION OF THYROID HORMONES AND ITS ANALOGUES IN PREPARATION OF DRUGS FOR TREATING ALPHA-THALASSEMIA” (SHANGHAI SPH RARE DISEASE PHARMACEUTICAL CO., LTD., priority 2020, published 2023)

Experiments:
[1] = system: zeta-globin gene (hbae5) expression in zebrafish embryos; test: Whole-mount mRNA in situ hybridization (WISH) of zeta-globin gene (hbae5) in zebrafish embryos; format: in vivo; details: 5 μmon, from 96 hours post fertilization, 24 hours treatment
Experimental: (§1) K562 cells were cultured in RPMI 1640 medium supplemented with 10% (v/v) fetal bovine serum; Hemin was dissolved into 0.2 mol/L NaOH solution, and the working concentration for treating K562 cells is 20 μmon; Triac, T3 and T4 were dissolved into dimethyl sulfoxide (DMSO), and the working concentration for treating K562 cells and zebrafish embryos is 20 μmon and 5 μmon, respectively.
During the development of zebrafish embryos, Triac, T3 and T4 were incubated with the zebrafish embryos at 96 hours post fertilization. After treatment with Triac, T3 and T4 for 24 hours, respectively, zebrafish embryos were fixed by 4% paraformaldehyde. The expression of zeta-globin gene (hbae5) was detected by Whole-mount mRNA in situ hybridization (WISH).

[2] = system: zeta-globin gene (hbae5) expression in zebrafish embryos; test: qPCR of zeta-globin gene (hbae5) expression in zebrafish embryos; format: in vivo; details: 5 μmon, from 96 hours post fertilization, 24 hours treatment
Experimental: as §1
During the development of zebrafish embryos, Triac, T3 and T4 were incubated with the zebrafish embryos at 96 hours post fertilization. After treatment with Triac, T3 and T4 for 24 hours, respectively, zebrafish embryos were collected. TRIzol reagent (Invitrogen) was used to extract total RNA, then a reverse transcription kit (ReverTra Ace, TOYOBO) was used to synthesize cDNA, and finally, a SYBRGreen Realtime PCR Master Mix (TOYOBO) reagent was used to perform quantitative PCR.
(§2) A quantitative PCR reaction system was as follows:
(§3) Conditions for a quantitative PCR reaction were as follows: • Hot start: 95° C., 10 minutes; • Denaturation: 95° C., 10 seconds; and • Annealing/stretching: 60° C., 30 seconds. • 40 cycles.
(§4) Dissolution Curve Analysis.

[3] = system: zeta-globin gene (HBZ) expression in K562 cells; test: qPCR of zeta-globin gene (HBZ) expression in hemin-treated K562 cells; format: cell-based, human; details: hemin 20 μmon plus Triac 20 μmon, 72 hours
Experimental: as §1
K562 cells were treated with hemin or hemin plus Triac for 72 hours, respectively, centrifugation was performed at 2000 rpm for 5 minutes to collect cells, a TRIzol reagent (Invitrogen) was used to extract total RNA, then a reverse transcription kit (ReverTra Ace, TOYOBO) was used to synthesize cDNA, and finally, a SYBR Green Realtime PCR Master Mix (TOYOBO) reagent was used to perform quantitative PCR.
as §2, §3, §4

SMILES | induction of expression of zeta-globin gene (hbae5), WISH [1] | up-regulation of expression of zeta-globin gene (hbae5), qPCR [2] | up-regulation of expression of zeta-globin gene (HBZ), qPCR [3]
N[C@@H](Cc1cc(I)c(Oc2ccc(O)c(I)c2)c(I)c1)C(=O)O [T3, 3,3′,5-Triiodo-L-thyronine] | significantly induce | 31 folds | –
N[C@@H](Cc1cc(I)c(Oc2cc(I)c(O)c(I)c2)c(I)c1)C(=O)O [T4, 3,3′,5,5′-tetraiodothyronine] | significantly induce | 41 folds | –
O=C(O)Cc1cc(I)c(Oc2ccc(O)c(I)c2)c(I)c1 [Triac, 2-[4-(4-hydroxy-3-iodophenoxy)-3,5-diiodophenyl] acetic acid] | significantly induce | 76 folds | 50.9 folds
